Assay results reported in PubChem BioAssay AID330 (DTP/NCI, 2004).
Several values for one entry are separate records, joined by “and”; a condition that tells them apart may be missing. Equal values may be shown once. Inconclusive results and toxic doses are left out. The calls were made as follows: active = survival T/C of 150% or more; inactive = T/C below 125% in these data.

Tested on: P388 leukemia ip, CD2F1 mice, survival T/C
Test: NCI In Vivo Anticancer Drug Screen. Data for tumor model P388 Leukemia (intraperitoneal) in CD2F1 (CDF1) mice
Settings: endpoint: median survival time, higher = longer survival
Summary of the method: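 Mice carrying the transplanted tumor received test compound or vehicle. Survival was recorded in each group, and the value is the treated-group measurement divided by that of the vehicle-treated control group.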

[1] = dose: 25.0 mg/kg/injection, schedule: Q01DX009 (ip), vehicle: saline
[2] = dose: 60.0 mg/kg/injection, schedule: Q01DX005 (ip), vehicle: saline with Tween-80
[3] = dose: 120.0 mg/kg/injection, schedule: Q01DX005 (ip), vehicle: saline with Tween-80
[4] = dose: 100.0 mg/kg/injection, schedule: Q04DX002 (ip), vehicle: saline with Tween-80
[5] = dose: 200.0 mg/kg/injection, schedule: Q04DX002 (ip), vehicle: saline with Tween-80
[6] = dose: 400.0 mg/kg/injection, schedule: Q04DX002 (ip), vehicle: saline with Tween-80
[7] = dose: 50.0 mg/kg/injection, schedule: Q01DX005 (ip), vehicle: saline with Tween-80
[8] = dose: 100.0 mg/kg/injection, schedule: Q01DX005 (ip), vehicle: saline with Tween-80
[9] = dose: 200.0 mg/kg/injection, schedule: Q01DX005 (ip), vehicle: saline with Tween-80
[10] = dose: 12.5 mg/kg/injection, schedule: Q01DX005 (ip), vehicle: saline with Tween-80
[11] = dose: 25.0 mg/kg/injection, schedule: Q01DX005 (ip), vehicle: saline with Tween-80

Measured: T/C

CC1=NN(c2ccccc2)C(=O)C1N=Nc1cc([N+](=O)[O-])cc(S(=O)(=O)O)c1O.CC1=NN(c2ccccc2)C(=O)C1N=Nc1cc([N+](=O)[O-])cc(S(=O)(=O)O)c1O.[Cr] (configuration not stated)
inactive: [1] 106 % of control and 108 % of control | dose: 50.0 mg/kg/injection, schedule: Q01DX009 (ip), vehicle: saline 111 % of control and 112 % of control and 115 % of control | dose: 100.0 mg/kg/injection, schedule: Q01DX009 (ip), vehicle: saline 119 % of control and 124 % of control (2×) | dose: 200.0 mg/kg/injection, schedule: Q01DX009 (ip), vehicle: saline 101 % of control and 103 % of control and 115 % of control

CC(C)=CCC(C)/C(=N\[N+](C)(C)C)c1ccccc1 (configuration not stated)
inactive: dose: 6.25 mg/kg/injection, schedule: Q01DX009 (ip), vehicle: saline 94 % of control | dose: 12.5 mg/kg/injection, schedule: Q01DX009 (ip), vehicle: saline 99 % of control | [1] 101 % of control and 116 % of control

Cc1c(-c2c(Cl)cccc2Cl)noc1CN(C)C
inactive: [2] 101 % of control | [3] 100 % of control | dose: 240.0 mg/kg/injection, schedule: Q01DX005 (ip), vehicle: saline with Tween-80 92 % of control

N#CCCN(CCC#N)C(CCC(=O)O)C(=O)O (configuration not stated)
inactive: dose: 50.0 mg/kg/injection, schedule: Q01DX005 (ip), vehicle: saline 93 % of control | dose: 100.0 mg/kg/injection, schedule: Q01DX005 (ip), vehicle: saline 100 % of control | dose: 200.0 mg/kg/injection, schedule: Q01DX005 (ip), vehicle: saline 101 % of control

CCOC(=O)C(CC(C)/C=N\Nc1ccccc1)(NC(C)=O)C(=O)OCC (configuration not stated)
inactive: dose: 100.0 mg/kg/injection, schedule: Q01DX001 (ip), vehicle: Klucel (hydroxypropylcellulose) (HPC) 95 % of control | dose: 200.0 mg/kg/injection, schedule: Q01DX001 (ip), vehicle: Klucel (hydroxypropylcellulose) (HPC) 93 % of control | dose: 400.0 mg/kg/injection, schedule: Q01DX001 (ip), vehicle: Klucel (hydroxypropylcellulose) (HPC) 99 % of control

CN1C(=O)C23CC4=CC=CC(O)C4N2C(=O)C1(CO)SS3 (configuration not stated)
inactive: dose: 0.62 mg/kg/injection, schedule: Q04DX002 (ip), vehicle: saline with Tween-80 103 % of control | dose: 1.25 mg/kg/injection, schedule: Q04DX002 (ip), vehicle: saline with Tween-80 104 % of control | dose: 2.5 mg/kg/injection, schedule: Q04DX002 (ip), vehicle: saline with Tween-80 119 % of control

c1ccc(CNSC(c2ccccc2)(c2ccccc2)c2ccccc2)cc1
inactive: [4] 101 % of control | [5] 102 % of control | [6] 92 % of control

O=C1C2C3C=CC(O3)C2C(=O)N1O (configuration not stated)
inactive: dose: 3.13 mg/kg/injection, schedule: Q01DX009 (ip), vehicle: water 102 % of control | dose: 6.25 mg/kg/injection, schedule: Q01DX009 (ip), vehicle: water 112 % of control | dose: 12.5 mg/kg/injection, schedule: Q01DX009 (ip), vehicle: water 121 % of control | dose: 25.0 mg/kg/injection, schedule: Q01DX009 (ip), vehicle: water 118 % of control | dose: 50.0 mg/kg/injection, schedule: Q01DX009 (ip), vehicle: water 105 % of control

Cc1cccc(NC(=S)NNc2nnc(-c3ccccc3)c(-c3ccccc3)n2)c1
inactive: [7] 90 % of control | [8] 99 % of control | [9] 100 % of control

CN(C)CCCN1c2ccccc2Sc2ccccc21
inactive: dose: 18.75 mg/kg/injection, schedule: Q01DX009 (ip), vehicle: saline with Tween-80 111 % of control | dose: 18.75 mg/kg/injection, schedule: Q01DX009 (ip), vehicle: saline 112 % of control | dose: 37.5 mg/kg/injection, schedule: Q01DX009 (ip), vehicle: saline with Tween-80 123 % of control | dose: 37.5 mg/kg/injection, schedule: Q01DX009 (ip), vehicle: saline 109 % of control

Cc1ccc(NC(=O)CCSC(=O)Nc2ccc(C)cc2)cc1
inactive: dose: 100.0 mg/kg/injection, schedule: Q04DX002 (ip), vehicle: Klucel (hydroxypropylcellulose) (HPC) 101 % of control | dose: 200.0 mg/kg/injection, schedule: Q04DX002 (ip), vehicle: Klucel (hydroxypropylcellulose) (HPC) 104 % of control | dose: 400.0 mg/kg/injection, schedule: Q04DX002 (ip), vehicle: Klucel (hydroxypropylcellulose) (HPC) 104 % of control

O=C(CCN1CCCCC1)Nc1ccc(F)c(Cl)c1
inactive: [7] 93 % of control | [8] 102 % of control | [9] 93 % of control

CN(C)CCCSc1c2ccccc2nc2cccc([N+](=O)[O-])c12
inactive: [2] 94 % of control | [3] 106 % of control

Cc1cc(C=C2C(=O)NC(=O)NC2=O)cc(C)c1O
inactive: [10] 108 % of control | [11] 103 % of control | [7] 105 % of control and 119 % of control | [8] 117 % of control

CCCCCCOc1cc(N)ccc1C(=O)O
inactive: [4] 98 % of control | [5] 100 % of control | [6] 92 % of control

O=S1(=O)CC(Cl)(Br)C1 (tested in a mixture with another compound)
inactive: dose: 12.5 mg/kg/injection, schedule: Q01DX009 (ip), vehicle: Klucel (hydroxypropylcellulose) (HPC) 96 % of control | dose: 25.0 mg/kg/injection, schedule: Q01DX009 (ip), vehicle: Klucel (hydroxypropylcellulose) (HPC) 93 % of control | dose: 50.0 mg/kg/injection, schedule: Q01DX009 (ip), vehicle: Klucel (hydroxypropylcellulose) (HPC) 100 % of control | dose: 100.0 mg/kg/injection, schedule: Q01DX009 (ip), vehicle: Klucel (hydroxypropylcellulose) (HPC) 96 % of control

CN1CCCc2cccc(c2)CCC1
inactive: dose: 12.5 mg/kg/injection, schedule: Q01DX005 (ip), vehicle: Klucel (hydroxypropylcellulose) (HPC) 98 % of control | dose: 25.0 mg/kg/injection, schedule: Q01DX005 (ip), vehicle: Klucel (hydroxypropylcellulose) (HPC) 100 % of control | dose: 50.0 mg/kg/injection, schedule: Q01DX005 (ip), vehicle: Klucel (hydroxypropylcellulose) (HPC) 99 % of control and 95 % of control

O=C(O)c1ccccc1Nc1ccccc1[N+](=O)[O-]
inactive: dose: 50.0 mg/kg/injection, schedule: Q04DX003 (ip), vehicle: saline 94 % of control | dose: 100.0 mg/kg/injection, schedule: Q04DX003 (ip), vehicle: saline 99 % of control | dose: 200.0 mg/kg/injection, schedule: Q04DX003 (ip), vehicle: saline 102 % of control | dose: 400.0 mg/kg/injection, schedule: Q04DX003 (ip), vehicle: saline 105 % of control

O=C(O)CCC(=O)CCl
inactive: dose: 3.13 mg/kg/injection, schedule: Q01DX009 (ip), vehicle: saline 109 % of control | dose: 25.0 mg/kg/injection, schedule: Q04DX003 (ip), vehicle: saline with Tween-80 104 % of control | dose: 50.0 mg/kg/injection, schedule: Q04DX003 (ip), vehicle: saline with Tween-80 108 % of control

O=C1C=CC(=Nc2cc3c(cc2Br)-c2ccccc2C3=O)O1
inactive: dose: 3.12 mg/kg/injection, schedule: Q01DX005 (ip), vehicle: saline with Tween-80 100 % of control and 98 % of control | dose: 6.25 mg/kg/injection, schedule: Q01DX005 (ip), vehicle: saline with Tween-80 100 % of control and 104 % of control | [10] 104 % of control and 105 % of control | [11] 104 % of control and 106 % of control and 117 % of control | [7] 103 % of control and 105 % of control | [8] 104 % of control

COc1c(O)ccc2c1CCCCC2=O
inactive: dose: 100.0 mg/kg/injection, schedule: Q01DX009 (ip), vehicle: saline with Tween-80 103 % of control | dose: 200.0 mg/kg/injection, schedule: Q01DX009 (ip), vehicle: saline with Tween-80 110 % of control | dose: 400.0 mg/kg/injection, schedule: Q01DX009 (ip), vehicle: saline with Tween-80 106 % of control
